Data on three compounds can be found in patent US12649734B2, “Bioavailable protein disulfide isomerase inhibitors” (THE CLEVELAND CLINIC FOUNDATION, priority 2020, dated 2026).

The subject of data set [1] is MM1.S cells. In words: Cell viability assay (CellTiter-Glo), MM1.S. The conditions noted are these: Homo sapiens; MM1.S.luc; read-out: IC50 concentration. Type of data set: cell-based, human. As to the method:
Cell vi-ability and LD50 for inhibitors were measured in 96 well culture plates (2×10^4 cells/well) after 72 h of treatment using CellTiter-Glo® Luminescent Cell Viability Assay (Promega, Madison, WI, USA). (A) Cell survival assay with MM1.S.luc and BTZ-resistant MM1.S.luc cells. […] (C) Comparison of PDIA1 protein levels in MM1.S.luc and MM1.S.luc BTZ-resistant cells. Band intensity was calculated with Image Lab Version 5.2.1. (D) Cell survival assay with 5TGM1.luc and (E) BTZ-resistant 5TGM1.luc cells. (F) MM1.S cell line was exposed to CCF642-34, and BTZ for 72 h for synergistic drug combination test according to Chou and Talalay method. If the […] remained less than 1, the two drugs were determined as synergistic. […] The number of colony-forming units were plotted for each treatment.
(§1) Cell viability assay: Cell viability was measured in 96 well culture plates (2×10^4 cells/well) using CellTiter-Glo® Luminescent Cell Viability Assay (Promega, Madison, WI, USA) according to the manufacturer's protocol.

Data set [2] relates to BTZ-resistant MM1.S cells. In words: Cell viability assay, BTZ-resistant MM1.S. The format is cell-based, human. The note with it: Homo sapiens, MM1.S; MM1S.luc BTZ; read-out: IC50 concentration. As to the method: Cells and reagents: MM1.S-luc-BTZ (BTZ®)-resistant cell line was made in our laboratory. Starting with 1 nM concentration, MM1.S-luc cells were treated with BTZ and exposed continuously for 5 days and removed for 2 days before re-exposure to the drug until the growth of the cells mimicked the parental cell line. Incremental increase of the drug was applied until the concentration of 8 nM was reached. […] BTZ was procured from Millennium Pharmaceuticals Inc. All cell lines that are used in this study and their detailed information are shown in table 1 below.
as §1

Data set [3] concerns RPMI-8226 cells vs CD34+ HSPCs derived from healthy bone marrow. Nature of the data set: In vitro colony-forming assay, myeloma cells versus normal bone marrow CD34+ cells. Type of data set: cell-based, human. The note with it: colonies scored on day 14. As to the method: In vitro colony-forming assays: Mononuclear cells derived from bone marrow or purified CD34+ cells from a healthy donor, cord blood, or MM cell RPMI-8226 were grown in semi-solid methylcellulose media (MethoCult™, H4435; STEMCELL Technologies) in the presence of indicated compounds and concentrations. A total of 10,000/mL normal bone marrow CD34+ cells and 1000/mL RPMI-8226 cells were plat-ed, and colonies were scored on day 14.

The test system of data set [4] is MM1.S cells. In words: RNA-seq gene expression profiling. Type of data set: cell-based, human. The conditions noted are these: 3 μM, 6 h. As to the method:
FIGS. 7A-7H provide graphs showing CCF642-34 is selective for PDIA1 inhibition-induced ER stress response pathway. MM1.S cells were treated with 3 μM of either CCF642 or CCF642-34 for 6 h, and gene expression analysis was performed by RNA sequencing. (A,B) Volcano plots showing CCF642-34 and CCF642 compared to DMSO control. The criteria for differential expression were at least a 2-fold change with p value less than 0.05. The analysis was performed in Originlab, Version 2019b (OriginLab Corporation, Northampton, MA, USA). […] The diagram was generated using a web-based bioinformatics server. (D,E) Hierarchical clusterings with heat map of MM1.S cells treated with vehicle CCF642-34 or CCF642 are shown for response to endoplasmic reticulum stress and unfolded protein response gene sets. (F-H) Heat maps of PERK and ATF6 target genes, Nrf2, and ER-associated degradation (ERAD) pathways are compared between control and inhibitor-treated MM1.S cells. Data analysis was performed using a web-based server and the Broad Institute Morpheus software.
RNA-seq and analysis: MM1.S cells were treated with 3 μM of either CCF642 or CCF642-34 for 6 h, and RNA was purified by using the NucleoSpin RNA kit (Takara Bio USA, Inc.; cat. #740955) according to the manufacturer's instruction. The RNA sequencings were completed as reported previously. Guan et al., Commun. Biol., 3, 1-13 (2020) The RNA-seq data were sub-mitted to the Gene Expression Omnibus (GEO) repository at the National Center for Biotechnology Information (NCBI) archives, with assigned GEO accession number GSE167097.

The nature of data set [5]: Solubility in aqueous buffer (turbidity assay). Type of data set: physicochemical. From the text:
To improve its solubility, potency, and selectivity, the inventors used the CCF642 binding space in the catalytic site for in silico modeling and mapped the binding site to the helix-turn-helix motif composed of the WCGHCK binding site in the aa′ and bb′ domains of the PDIA1 active site (FIG. 4A,B). […] The inventors chose to accomplish this by attaching a 3-carbon flexible linker with a terminal primary amino group to the corresponding phenol followed by coupling to desired L-amino acids (FIGS. 1, 2, 4A). The N-BOC penultimate intermediates were purified using flash silica gel chromatography and then deprotected using 4N HCl in dioxane to generate the corresponding hydrochloride (HCL) salts. The compounds for testing were fully characterized by ^1H, ^13C NMR and high-resolution mass spectroscopy.

The target in another data set is PDI (Homo sapiens, UniProt P07237). The conditions noted are these: reported previously; cited from earlier work.
Chain of PDI (P07237 18-508): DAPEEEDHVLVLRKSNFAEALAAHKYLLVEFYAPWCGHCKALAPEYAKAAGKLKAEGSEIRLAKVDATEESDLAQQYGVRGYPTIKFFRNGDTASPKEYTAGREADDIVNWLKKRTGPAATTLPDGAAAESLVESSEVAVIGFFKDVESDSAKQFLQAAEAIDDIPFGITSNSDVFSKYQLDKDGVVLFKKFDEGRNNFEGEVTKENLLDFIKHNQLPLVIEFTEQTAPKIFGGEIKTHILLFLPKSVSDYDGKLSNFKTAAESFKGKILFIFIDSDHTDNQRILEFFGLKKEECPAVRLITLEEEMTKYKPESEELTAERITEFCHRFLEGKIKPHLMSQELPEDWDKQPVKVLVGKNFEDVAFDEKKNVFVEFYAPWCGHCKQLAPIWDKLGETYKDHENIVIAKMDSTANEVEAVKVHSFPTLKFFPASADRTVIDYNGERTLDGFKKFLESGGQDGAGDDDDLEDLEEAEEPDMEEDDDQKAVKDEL
For another data set, the target named is PDIA1 (Homo sapiens, UniProt P07237). The note with it: cited from earlier work.
Chain of PDIA1 (P07237 18-508): as above
Data set [6] relates to MM1.S cells. Nature of the data set: ER stress response and apoptosis markers by immunoblotting. The format is cell-based, human. The conditions noted are these: 3 μM, 4 h. As to the method:
FIGS. 6A-6C provide graphs and images showing PDIA1 inhibition by CCF642 analogues induce acute endoplasmic reticulum (ER) stress response and lead to apoptosis. Multiple myeloma cells (MM1.S) were treated with 3 μM of CCF642, -34, -37, -39, -34-A, and Tunicamycin (as a control). The status of ER sensors (XBP-1S, IRE1α oligomerization, and induction of C/EBP homology protein (CHOP)) along with apoptosis markers (cleaved caspase 3 and PARP1) were monitored. (A) MM1.S cells were treated for 4 h with CCF642 and its indicated analogues. (B) MM1.S cells were treated with CCF642-34 in a time course. (C) MM1.S, MM1.S.luc, and BTZ-resistant MM1.S.luc cells were stained with the H2DCFDA ROS detection and then treated with 2.5 μM CCF642-34 up to 4 h.
Immunoblotting: Immunoblotting was performed as described previously (Dallas et al., Blood, 93, 1697-1706 (1999)) using primary antibodies against PDIA1 (Cat #3501), XBP1-S (Cat #12782); IRE1α (Cat #3294), C/EBP homologous protein (CHOP) (Cat #5554), Caspase-3 (Cat #9665), PARP1 (Cat #9542), and GAPDH (Cat #3683) purchased from Cell Signaling Technology, Inc. (Danvers, MA, USA) and used at 1:1000 dilution, unless mentioned otherwise.
(Immunoblotting shows a protein as a band on a membrane.)

Molecules are shown by their SMILES.

For the compound `CC(C)C[C@H](NC(=O)[C@H](Cc1ccccc1)NC(=O)c1cnccn1)B(O)O` [Bortezomib, reference compound], the IC50 amounted to 2 nM with MM1.S cells [1] and 8 nM in data set [2].
Turning to `COc1ccc(N2C(=O)/C(=C\c3ccc([N+](=O)[O-])s3)SC2=S)cc1` [CCF642, reference compound], in data set [3], the “potency in restricting colony formation of RPMI-8226 compared to CD34+ HSPCs” value is recorded as around 20 fold. Also, in the data set with MM1.S cells [4], the “number of downregulated genes” value is on record as 257 genes and the “number of upregulated genes” value was determined as 311 genes. Moreover, the “number of genes with changed expression compared to vehicle control” value with MM1.S cells [4] (2-fold change, p less than 0.05) is listed as 568 genes. Moreover, the solubility entry in data set [5] is on record as “insolubility”. Also, on PDI, the IC50 entry is “sub-micromolar”. The “binding selectivity of CCF642, as reported previously” value at PDIA1 is listed as “off-target bindings in addition to its binding to PDIA1”.
Consider `O=C(CCC1CNc2ccccc21)NCCCOc1ccc(N2C(=O)/C(=C/c3ccc([N+](=O)[O-])s3)SC2=S)cc1` (stereo not shown) [CCF642-34A], for which the “ER stress response (induction of XBP-1S and CHOP)” value with MM1.S cells [6] is “failed to induce acute ER stress response”.
